Source: patent EP3108900B1, “PROTOTYPE SYSTEMS OF THERANOSTIC BIOMARKERS FOR IN VIVO MOLECULAR MANAGEMENT OF CANCER” (EPOS-Iasis Research and Development, Ltd, priority 2015, dated 2016)
Values joined by “and” are separate entries in the source; they are usually repeats but may differ in a detail not shown here. Equal values may be shown once. Read-outs that look alike come from different tables or passages of the source.

Experiments:
[1] = biological target: EGFR-Luc and Grb2-GFP (Homo sapiens, UniProt P00533); assay: BRET assay of EGFR-Luc and Grb2-GFP interaction; assay type: cell-based; conditions: interaction between EGFR-Luc and Grb2-GFP
[2] = test system: SW620 cells; assay: label-free temporal and quantitative pharmacoproteomics; assay type: cell-based
Description: The following experiment was performed to uncover new biomarkers of therapeutic response to the anticancer efficacy of the natural product based theranostic systems of the present invention.
In this experiment, SW620 cells were seeded in T75 flasks in DMEM, 10% FBS and 1% Penicillin/Streptomycin (all from Gibco). The cells were allowed to attach overnight. The following day the medium was removed and fresh medium containing 0.04 mM of either γT (γ-tocotrienol) or DCE-γT (diluted in absolute ethanol; final concentration of ethanol in the medium was 0.1% v/v). For control untreated cells, equal amount of fresh medium (containing ethanol at 0.1% v/v final concentration) was added.
SW620 cells were harvested after 24, 36 and 48 hrs of incubation with γT or DCE-γT. Briefly, the medium was removed and the cells were rinsed three times with PBS (without Ca, Mg) (Gibco). Fresh PBS was added and the cells were scraped off the flasks and collected in tubes. Collected cells were centrifuged at 1000rpm (165g) for 3min and the supernatant was removed. The cell pellet was re-suspended in PBS and the centrifugation step was repeated. The supernatant was removed and the cells in minimal residual PBS were snap-freezed in liquid nitrogen. Once frozen the cells were stored in -80°C until the proteomics analysis.
In terms of data analysis, a threshold of relative protein abundance equal or greater than 1.5-fold increase or decrease was set.

[3] = biological target: T1, EGFR membrane tyrosine kinase receptor (Homo sapiens, UniProt P00533); assay: FRET assay in cells transfected with EGFR-Luc plasmid; assay type: cell-based; conditions: EGFR negative colon cancer cells transiently transfected with EGFR-Luc plasmid
T1 construct: expressed in transfected cells
Description: The fluorescent esters of the natural products disclosed herein can also be used as molecular probes for deciphering the interaction between the natural product and potential biomarkers in cancer cells. EGFR negative colon cancer cells were transiently transfected with a rationally designed EGFR-Luc plasmid and incubated with the DCE-γ-Tocotrienol ester. Bioluminescence of the Luciferase (donor) was assessed against the fluorescence signal of either the DCE-γ-Tocotrienol ester or the hydrolysis product (acceptor).

[4] = in vivo biodistribution, quantitative fluorescence imaging
[5] = test system: LoVo cells; assay: MTT colorimetric assay (antiproliferative efficacy); assay type: cell-based
[6] = test system: colon cancer cells (SW480); assay: antiproliferative effect / cell viability; assay type: cell-based; conditions: control = no drug
Description: The antiproliferative effect of the following compounds A1F, B1F, C1F and D1F were tested on colon cancer cells (SW480). [drawing 94] [drawing 95]

[7] = SW620 cells, 0.04 mM, versus control untreated cells

Compound: dicarboxylic ester of γ-Tocotrienol [DCE-γT]
- activation within the EGFR axis (BRET signals) [1]: neither the ester nor the hydrolysis products elicit any unwanted activation
- decrease of DNA repair factors [2]: 2 fold
- decrease of protein level of histone H3 types [2]: at least 6 fold
- decrease of protein level of snRNPs / certain snRNP components [2]: 2 fold
- increase of histone H2A.Z [2]: 23 fold
- increase of histone H3 forms [2]: ≥ 1.8 fold
- number of proteins whose expression was elicited [2]: 37 proteins and 30 proteins and 29 proteins
- protein modulation [2]: statistically significant modulation of key proteins
- BRET signal [3]: amplified FRET signal
- time of peak of fluorescent signal ([4]; in vivo biodistribution, uptake as a function of time): 30 min
- brain uptake / blood brain barrier passage ([4]; mouse brain parenchyma cells, data not shown): able to pass the blood brain barrier

Compound: CC1(C)C(/C=C/C=C/C=C/C=C2\N(CCCCS(=O)(=O)O)c3ccc4ccccc4c3C2(C)C)=[N+](CCCCS(=O)(=O)[O-])c2ccc3ccccc3c21 [free cyanine dye, indocyanine green]
- antiproliferative efficacy [5]: did not exhibit any antiproliferative effects

Compound: CC(C)=CCC/C(C)=C/CC/C(C)=C/CC[C@]1(C)CCc2cc(O)c(C)c(C)c2O1 [γT, γ-tocotrienol, reference compound]
- decrease of protein level of histone H2B types [2, 7]: 1.8 fold
- decrease of protein level of histone H3 types [2, 7]: at least 3.7 fold
- decrease of protein level of hnRNPs [2, 7]: at least 2 fold
- decrease of protein level of snRNPs / certain snRNP components [2, 7]: 1.8 fold
- increase of histone H2A.Z [2, 7]: 24 fold
- increase of the level of RNA helicases [2, 7]: ≥ 1.9 fold
- increase of the level of certain snRNP components [2, 7]: ≥ 3 fold
- increase of the level of transcription regulators/co-factors [2, 7]: ≥ 2 fold

Compound: C=CC(=O)Nc1cc2c(Nc3ccc(Br)cc3)ncnc2cc1NC(=O)CCl [A1F]
- viability of the cells with respect to the control [6]: reduce the viability of the cells

Compound: C=CC(=O)Nc1cc2c(NCc3cccc4ccccc34)ncnc2cc1NC(=O)CCl [C1F]
- viability of the cells with respect to the control [6]: reduce the viability of the cells

Compound: C=CC(=O)Nc1cc2c(Nc3ccc(C(C)C)cc3)ncnc2cc1NC(=O)CCl [B1F]
- viability of the cells with respect to the control [6]: reduce the viability of the cells

Compound: C=CC(=O)Nc1cc2c(Nc3ccc(C(C)(C)C)cc3)ncnc2cc1NC(=O)CCl [D1F]
- viability of the cells with respect to the control [6]: reduce the viability of the cells
